Molecules are shown by their SMILES.

Series [1] has as its target T1, Caspase-1 (Homo sapiens, UniProt P29466).
T1 sequence (P29466 120-297 limits assumed): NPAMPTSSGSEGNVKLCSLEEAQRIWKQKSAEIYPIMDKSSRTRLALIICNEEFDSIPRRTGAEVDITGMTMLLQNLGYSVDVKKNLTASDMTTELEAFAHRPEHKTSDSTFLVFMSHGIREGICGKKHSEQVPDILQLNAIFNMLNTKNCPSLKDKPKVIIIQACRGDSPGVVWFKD
T1 sequence (P29466 317-404 limits assumed): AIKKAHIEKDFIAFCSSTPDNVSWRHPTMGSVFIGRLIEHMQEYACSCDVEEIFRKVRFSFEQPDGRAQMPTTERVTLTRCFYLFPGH
As to the kind of experiment: Specificity of the probe towards caspase-1. The series is classed as biochemical. The conditions noted are these: summary of biological assays. The protocol: The E/S ratio was 1/1000, 25 cycles: 1 min. intervals. • Figures 4A-C: show the in vitro cleavage of 10 µM probe VI in the presence of 10 nM caspase-1. […] The E/S ratio was 1/1000, 25 cycles: 1 min. intervals. • Figure 5: Cellular assay with Probe III; PMA=Phorbol-12-myristate-13-acetate; LPS=Lipopolysaccharide; zVAD=carbobenzoxy-valyl-alanyl-asparty-[O-methyl]-fluoromethylketone • Figure 6A-E: Kinetic characterization of probes II, VI, V, IV, and VII. • Figure 7: Cell permeability assay.

A short description of series [2]: Cellular toxicity (summary statement). The conditions noted are these: summary of biological assays. Type of series: cell-based.
Series [3] deals with T1, Caspase-1. In words: In vitro cleavage of the probe by caspase-1 (fluorescence / FRET change). Type of series: biochemical. The note with it: for in vitro cleavage: 10 µM probe, 10 nM caspase-1, E/S ratio 1/1000, 25 cycles: 1 min. intervals. The protocol: The E/S ratio was 1/1000, 25 cycles: 1 min. intervals. • Figure 5: Cellular assay with Probe III; PMA=Phorbol-12-myristate-13-acetate; LPS=Lipopolysaccharide; zVAD=carbobenzoxy-valyl-alanyl-asparty-[O-methyl]-fluoromethylketone • Figure 6A-E: Kinetic characterization of probes II, VI, V, IV, and VII. • Figure 7: Cell permeability assay.

Protocol for THP-1 cells: THP-1 cells were differentiated with PMA in 4-well glass chambers for 48 hours. 2 hours before the assay zVAD-fmk was added to negative controls. Probes were then added to the cells in 5 µM final concentration and the probe uptake was studied by fluorescence microscopy.

Turning to `CCN(CC)c1ccc2cc(C(=O)NNC(=O)[C@H](CC(=O)O)NC(=O)[C@@H]3CCCN4C(=O)CC[C@H](NC(=O)c5cc6ccc(OC)cc6oc5=O)C(=O)N34)c(=O)oc2c1` [Probe III], at Caspase-1 [1], the specificity entry is “- Superiorly specific”. Besides, the Cell permeability entry in the series on THP-1 cells was “- Cell permeability”. For the same molecule, the toxicity entry in series [2] is reported as “- No sign of toxicity”. In addition, at Caspase-1 [3], the in vitro cleavage entry is on record as “cleaved very efficiently”. Moreover, the FRET change entry at Caspase-1 [3] (Figure 1A, cleavage by caspase-1) is reported as “about 10 fold”. Further, on Caspase-1 [3] (Figure 1A, dependence on enzyme dose), the “change of fluorescence intensity in response to cleavage by caspase-1” value is recorded as “enzyme dose-dependent manner”. The “FRET change (concentration dependence)” value on Caspase-1 [3] (summary of biological assays) was “- Concentration dependent FRET change”.
For the molecule `CCCCCCCCN(CCCCCCCC)c1ccc2c(COC(=O)CCCC(=O)NNC(=O)[C@H](CC(=O)O)NC(=O)[C@@H]3CCCN4C(=O)CC[C@H](NC(=O)c5cc6ccc(OC)cc6oc5=O)C(=O)N34)cc(=O)oc2c1` [Probe I], the “Cellular entry (time)” value in the series on THP-1 cells is “- Cellular entry within 5-7 min”.
In the case of `CCN(CC)c1ccc2cc(C(=O)NCC(=O)NCCCCCCCCNC(=O)[C@H](CC(=O)O)NC(=O)[C@@H]3CCCN4C(=O)CC[C@H](NC(=O)c5cc6ccc(OC)cc6oc5=O)C(=O)N34)c(=O)oc2c1` [Probe VI], the in vitro cleavage entry at Caspase-1 [3] is “cleaved very efficiently”.

These data come from EP2848696A1, “Caspase-1 imaging probes” (Sanofi-Aventis Deutschland GmbH, priority 2013, dated 2015).
